Test results taken from patent US9115101B2 (Genentech, Inc., priority 2012, dated 2015).

These molecules were tested against T1, RORc ligand binding domain (Homo sapiens, UniProt P51449) (assay: In Vitro RORc Ligand Binding Assay (25-[3H]hydroxycholesterol radioligand filtration)). Conditions: In Vitro RORc Ligand Binding Assay; Table 4; read-out: RORc IC50.
T1 construct: host or cells: E. coli
T1 sequence (P51449 269-508 limits assumed): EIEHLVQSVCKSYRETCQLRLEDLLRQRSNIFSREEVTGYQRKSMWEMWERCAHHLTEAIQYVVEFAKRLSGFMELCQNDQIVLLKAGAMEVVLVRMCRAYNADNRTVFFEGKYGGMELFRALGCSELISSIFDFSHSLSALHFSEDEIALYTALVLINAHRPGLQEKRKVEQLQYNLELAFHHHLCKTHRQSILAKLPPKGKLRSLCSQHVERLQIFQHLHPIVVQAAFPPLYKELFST

| SMILES | IC50 |
| --- | --- |
| N#CCC(=O)N1CCN(c2ccc(CN3CCCCC(c4ccccc4)S3(=O)=O)cc2)CC1 (single isomer, unassigned) [Example 310, 3-{4-[4-(1,1-Dioxo-7-phenyl-[1,2]thiazepan-2-ylmethyl)-phenyl]-piperazin-1-yl}-3-oxo-propionitrile] | 0.045 µM |
| C[C@H](O)C(=O)N1CCN(c2ccc(CN3CCCCC(c4ccccc4)S3(=O)=O)cc2)CC1 (single isomer, unassigned) [Example 311, 1-{4-[4-(1,1-Dioxo-7-phenyl-[1,2]thiazepan-2-ylmethyl)-phenyl]-piperazin-1-yl}-2-hydroxy-propan-1-one] | 0.898 µM |
| N#CCC(=O)N1CCN(c2ccc(CN3CCCCC(c4ccccc4)S3(=O)=O)cc2)CC1 (single isomer, unassigned) [Example 312, 3-{4-[4-(1,1-Dioxo-7-phenyl-[1,2]thiazepan-2-ylmethyl)-phenyl]-piperazin-1-yl}-3-oxo-propionitrile] | 0.926 µM |
| C[C@@H](O)C(=O)N1CCN(c2ccc(CN3CCCCC(c4ccccc4)S3(=O)=O)cc2)CC1 (single isomer, unassigned) [Example 317, 1-{4-[4-(1,1-Dioxo-7-phenyl-[1,2]thiazepan-2-ylmethyl)-phenyl]-piperazin-1-yl}-2-hydroxy-propan-1-one] | 3.4 µM |
| O=C(CO)N1CCN(c2ccc(CN3CCCCC(c4ccccc4)S3(=O)=O)cc2)CC1 (single isomer, unassigned) [Example 318, 1-{4-[4-(1,1-Dioxo-7-phenyl-[1,2]thiazepan-2-ylmethyl)-phenyl]-piperazin-1-yl}-2-hydroxy-ethanone] | 1.97 µM |
| CC(=O)N1CCN(c2ccc(CN3[C@@H](C)CCCC(c4ccccc4)S3(=O)=O)c(F)c2)CC1 (single isomer, unassigned) [Example 320] | 1.92 µM |
| CC(=O)N1CCN(c2ccc(CN3[C@H](C)CCCC(c4ccccc4)S3(=O)=O)c(F)c2)CC1 (single isomer, unassigned) [Example 321] | 0.016 µM |
| O=S1(=O)C(c2ccccc2)CCCCN1Cc1ccc(N2CCC(n3cnnc3)CC2)cc1F (single isomer, unassigned) [Example 323, 2-[2-Fluoro-4-(4-[1,2,4]triazol-4-yl-piperidin-1-yl)-benzyl]-7-phenyl-[1,2]thiazepane 1,1-dioxide] | 0.002 µM |
| CS(=O)(=O)N1CCC(Nc2ccc(CN3CCCCC(c4ccccc4)S3(=O)=O)cc2)CC1 (single isomer, unassigned) [Example 324, [4-(1,1,-Dioxo-7-phenyl-[1,2]thiazepan-2-ylmethyl)-phenyl]-(1-methanesulfonyl-piperidin-4-yl)-amine] | 0.003 µM |
| O=S1(=O)C(c2ccccc2)CCCCN1Cc1ccc(N2CCC(n3cnnc3)CC2)cc1F (single isomer, unassigned) [Example 325, 2-[2-Fluoro-4-(4-[1,2,4]triazol-4-yl-piperidin-1-yl)-benzyl]-7-phenyl-[1,2]thiazepane 1,1-dioxide] | 0.01 µM |
| CS(=O)(=O)N1CCC(Nc2ccc(CN3CCCCC(c4ccccc4)S3(=O)=O)cc2)CC1 (single isomer, unassigned) [Example 326, [4-(1,1-Dioxo-7-phenyl-[1,2]thiazepan-2-ylmethyl)-phenyl]-(1-methanesulfonyl-piperidin-4-yl)-amine] | 0.004 µM |
| CC(=O)N1CCN(c2ccc(CN3C(C)CCCC(c4ccccc4)S3(=O)=O)c(F)c2)CC1 (single isomer, unassigned) [Example 327, 1-{4-[3-Fluoro-4-(3-methyl-1,1-dioxo-7-phenyl-[1,2]thiazepan-2-ylmethyl)-phenyl]-piperazin-1-yl}-ethanone] | 0.003 µM |
| CC(=O)N1CCN(c2ccc(CN3C(C)CCCC(c4ccccc4)S3(=O)=O)c(F)c2)CC1 (single isomer, unassigned) [Example 329, 1-{4-[3-Fluoro-4-(3-methyl-1,1-dioxo-7-phenyl-[1,2]thiazepan-2-ylmethyl)-phenyl]-piperazin-1-yl}-ethanone] | 0.024 µM |
| CC(=O)N1CCN(c2ccc(CN3CCC(C)CC(c4ccccc4)S3(=O)=O)c(F)c2)CC1 (single isomer, unassigned) [Example 332, 1-{4-[3-Fluoro-4-(5-methyl-1,1-dioxo-7-phenyl-[1,2]thiazepan-2-ylmethyl)-phenyl]-piperazin-1-yl}-ethanone] | 0.071 µM |

Results, then the molecule that gave them:

| IC50 | SMILES |
| --- | --- |
| 0.106 µM | C[C@H](O)C(=O)N1CCN(c2ccc(CN3CCCCC(c4ccccc4)S3(=O)=O)cc2)CC1 (single isomer, unassigned) [Example 309, 1-{4-[4-(1,1-Dioxo-7-phenyl-[1,2]thiazepan-2-ylmethyl)-phenyl]-piperazin-1-yl}-2-hydroxy-propan-1-one] |
| 0.592 µM | O=C(CO)N1CCN(c2ccc(CN3CCCCC(c4ccccc4)S3(=O)=O)c(F)c2)CC1 (single isomer, unassigned) [Example 313, 1-{4-[4-(1,1-Dioxo-7-phenyl-[1,2]thiazepan-2-ylmethyl)-3-fluoro-phenyl]-piperazin-1-yl}-2-hydroxy-ethanone] |
| 0.237 µM | C[C@@H](O)C(=O)N1CCN(c2ccc(CN3CCCCC(c4ccccc4)S3(=O)=O)c(F)c2)CC1 (single isomer, unassigned) [Example 314, 1-{4-[4-(1,1-Dioxo-7-phenyl-[1,2]thiazepan-2-ylmethyl)-3-fluoro-phenyl]-piperazin-1-yl}-2-hydroxy-propan-1-one] |
| 0.321 µM | C[C@@H](O)C(=O)N1CCN(c2ccc(CN3CCCCC(c4ccccc4)S3(=O)=O)cc2)CC1 (single isomer, unassigned) [Example 315, 1-{4-[4-(1,1-Dioxo-7-phenyl-[1,2]thiazepan-2-ylmethyl)-phenyl]-piperazin-1-yl}-2-hydroxy-propan-1-one] |
| 0.173 µM | O=C(CO)N1CCN(c2ccc(CN3CCCCC(c4ccccc4)S3(=O)=O)cc2)CC1 (single isomer, unassigned) [Example 316, 1-{4-[4-(1,1-Dioxo-7-phenyl-[1,2]thiazepan-2-ylmethyl)-phenyl]-piperazin-1-yl}-2-hydroxy-ethanone] |
| 0.008 µM | CC(=O)N1CCN(c2ccc(CN3[C@H](C)CCCC(c4ccccc4)S3(=O)=O)c(F)c2)CC1 (single isomer, unassigned) [Example 319] |
| 0.026 µM | CC(=O)N1CCN(c2ccc(CN3[C@@H](C)CCCC(c4ccccc4)S3(=O)=O)c(F)c2)CC1 (single isomer, unassigned) [Example 322] |
| 1.09 µM | CC(=O)N1CCN(c2ccc(CN3C(C)CCCC(c4ccccc4)S3(=O)=O)c(F)c2)CC1 (single isomer, unassigned) [Example 328, 1-{4-[3-Fluoro-4-(3-methyl-1,1-dioxo-7-phenyl-[1,2]thiazepan-2-ylmethyl)-phenyl]-piperazin-1-yl}-ethanone] |
| 0.037 µM | CC(=O)N1CCN(c2ccc(CN3C(C)CCCC(c4ccccc4)S3(=O)=O)c(F)c2)CC1 (single isomer, unassigned) [Example 330, 1-{4-[3-Fluoro-4-(3-methyl-1,1-dioxo-7-phenyl-[1,2]thiazepan-2-ylmethyl)-phenyl]-piperazin-1-yl}-ethanone] |
| 0.022 µM | CC(=O)N1CCN(c2ccc(CN3CCC(C)CC(c4ccccc4)S3(=O)=O)c(F)c2)CC1 (single isomer, unassigned) [Example 331, 1-{4-[3-Fluoro-4-(5-methyl-1,1-dioxo-7-phenyl-[1,2]thiazepan-2-ylmethyl)-phenyl]-piperazin-1-yl}-ethanone] |
